Like-named read-outs stand apart in the source and are kept apart here.
What was measured:
[1] = system: dimethylnitrosamine-induced hepatic fibrosis; test: Dimethylnitrosamine-induced severe liver fibrosis in rats (Example 1); assay type: in vivo
Description: The experimental method was as follows. Male Sprague-Dawley rats were divided into four groups. Two groups were injected intraperitoneally with 1% dimethylnitrosamine in saline for three consecutive days per week for 3 weeks, at a dose of 1 ml/kg body weight. This dosage regimen will induce severe liver fibrosis. The other two groups of rats, control rats, were injected with saline. One group of dimethylnitrosamine-treated rats and one control group were fed Halofuginone in the diet at a dose of 5 mg/kg weight of diet, starting three days before the dimethylnitrosamine injections were administered. At the end of the experimental period, the rats were sacrificed and the liver was removed and weighed.
(§1) Liver samples were taken for histological examination. Briefly, the tissue samples were collected into phosphate-buffered saline (PBS) and fixed overnight in 4% paraformaldehyde in PBS at 4° C. Serial 5 μm sections were prepared after the samples had been dehydrated in graded ethanol solutions, cleared in chloroform and embedded in Paraplast. Differential staining of collagenous and non-collagenous proteins was performed with 0.1% Sirius red and 0.1% fast green as a counter-stain in picric acid. This procedure stains collagen red [Gascon-Barre, M., et al., J. Histochem. Cytochem., 37:377-381, 1989].
Liver samples were then hybridized with a probe for rat collagen α1(I) expression. For hybridization with the genetic probe, the sections were deparafinized in xylene, rehydrated through a graded series of ethanol solutions, rinsed in distilled water for 5 minutes and then incubated in 2×SSC at 70° C. for 30 minutes. The sections were then rinsed in distilled water and treated with pronase, 0.125 mg/ml in 50 mM Tris-HCl, 5 mM EDTA, pH 7.5, for 10 minutes. After digestion, the slides were rinsed with distilled water, post-fixed in 10% formalin in PBS and blocked in 0.2% glycine. After blocking, the slides were rinsed in distilled water, rapidly dehydrated through graded ethanol solutions and air-dried for several hours. Before hybridization, the 1600 bp rat collagen α1(I) insert was cut out from the original plasmid, pUC18, and inserted into the pSafyre plasmid. The sections were then hybridized with this probe after digoxigenin-labeling [M. Pines et al., Matrix Biology, 14:765-71, 1996].

[2] = system: mild dimethylnitrosamine-induced fibrosis; test: Mild dimethylnitrosamine-induced fibrosis in rat liver (Example 2); assay type: in vivo; settings: 4 weeks
Description: The specific experimental method used was similar to that of Example 1, except that the dimethylnitrosamine-treated rats were only given 0.25% dimethylnitrosamine in saline, a much lower dose than that given in Example 1 above. Also, the duration of treatment was longer before the rats were sacrificed: 4 weeks as opposed to 3 weeks in Example 1.
The expression of the collagen α1(I) gene was measured as described in Example 1 above. For hydroxyproline analysis, liver samples were hydrolyzed for 22 hours at 110° C. with 6 N HCl. Nitrogen was determined after Kjeldahl digestion by the spectrophotometric procedure using an autoanalyzer as described by Krom [M. D. Krom, Analyst, 105:305-16, 1980]. The collagen-unique amino acid hydroxyproline from the same hydrolysate was determined by amino acid analysis (Biotronik LC 5000, Germany) after post-column derivatization on a cation exchange column (BTC 2710, Biotronik). The results are expressed as the percentage of collagen in total liver proteins.

[3] = system: bile duct ligation-induced fibrosis; assay type: in vivo, rat
From the text: In addition to dimethylnitrosamine-induced liver fibrosis, a second model of liver fibrosis in rats is available. […] Tox., 15:449-453, 1995]. Thus, the particular advantage of the bile duct ligation model is that any protective treatments must directly protect the liver from the pathological changes induced by fibrosis, rather than indirectly altering the effects of the exogeneous substance which is used to cause liver fibrosis in the animal model. The experimental method was as follows.
Male Wistar rats, weighing 200-250 g, were divided into four experimental groups with 3 rats in each group. […] It should be noted that all animals in the first two groups underwent sham operations which included all steps of the actual surgical procedure, with the exception of the bile duct ligation itself. The third group had bile duct ligation surgery and was not given Halofuginone. The fourth group had bile duct ligation surgery and was given Halofuginone. The actual surgical procedure was essentially similar to that reported in the literature [Kountaras, J. et al., Br. J. Exp. Pathol., 65:305-311, 1984].
All animals were given drinking water ad libitum. Rats which were given Halofuginone were fed Halofuginone in the normal rat diet at a concentration of 5 mg per kg diet weight for one week before surgery and for the duration of the experimental period, which was either 3 or 7 days after the surgical operation. Rats were sacrificed at the end of the experimental period. Both collagen content (through Sirius red staining) and collagen α1(I) gene expression were measured as described above in Example 1. In addition, serum alkaline phosphatase, alanine aminotransferase and aspartate aminotransferase levels were measured […] by a Hitachi Auto-analyzer System of Boerringher-Mannheim.

[4] = system: TAA-induced liver cirrhosis; assay type: in vivo, rat
Description: (§2) Male Sprague-Dawley rats were divided into three groups. Two groups were injected intraperitoneally with TAA twice weekly for 12 weeks, at a dose of 200 mg/kg body (Muller, A. et al., Exp. Pathol., 34:229-236, 1988; Hori, N. et al., Dig. Dis. Sci., 38:2195-2202, 1993). […] The other group of rats, control rats, was injected with saline. One group of TAA-treated rats and one control group were fed Halofuginone in the diet at a dose of 5 ppm.
For this experiment, rats in group 1 received only Halofuginone (n=4); rats in group 2 received TAA alone without Halofuginone (n=6); and rats in group 3 received TAA with Halofuginone (n=6). Groups 1and 3 received Halofuginone starting three days before the TAA injections were administered. At the end of the experimental period, the rats were sacrificed and the liver was removed and weighed.
as §1
In addition, the livers were scored in a double-blind evaluation, on a scale of 0-4, for the appearance of fibrotic tissue.

[5] = system: TAA-induced liver cirrhosis; test: Treatment of existing TAA-induced liver cirrhosis in rats (Example 4); assay type: in vivo, rat
Description: as §2, §1
In addition, the livers were scored in a double-blind evaluation, on a scale of 0-4, for the appearance of fibrotic tissue. […]

[6] = system: stellate cells; test: Smooth muscle actin in stellate cells, TAA prevention experiment (Example 5); assay type: in vivo, rat; settings: prophylactic administration of Halofuginone with TAA
From the text: (§3) Liver cirrhosis was induced with TAA as previously described. […] These cells are located in the subendothelial space, between the apical membrane of hepatocytes and the ablumenal side of the sinusoidal endothelial cells. The intimate association between the stellate cells and the neighboring cell types facilitates intercellular transport and paracrine stimulation by soluble mediators. In injured liver, these cells acquire features of myofibroblasts and express smooth muscle cytoskeletal markers such as smooth muscle actin. […] The experimental method was as follows.
(§4) Rats were treated with TAA alone or TAA with Halofuginone as previously described in Example 4 for the use of Halofuginone as both a prophylactic treatment and a treatment for existing liver cirrhosis. Tissue samples were also prepared as previously described, except that rather than undergoing staining for collagen, the samples were incubated with smooth muscle actin antibodies in a 1:1000 dilution, with detection performed by the Histomouse SP kit according to the instructions of the manufacturer (Zymed Laboratories Inc., San Francisco, Calif., USA).

[7] = system: stellate cells; test: Smooth muscle actin in stellate cells, TAA treatment experiment (Example 5); assay type: in vivo, rat; settings: Halofuginone administered after induction of liver cirrhosis by TAA
From the text: as §3, §4

[8] = system: collagen type I; settings: as demonstrated in U.S. Pat. No. 5,449,678; cited from earlier work
[9] = bile duct ligated rats fed Halofuginone vs bile duct ligation only
[10] = bile duct ligated rats, Halofuginone 5 mg per kg diet

## O=C(CC1NCCC[C@H]1O)Cn1cnc2cc(Br)c(Cl)cc2c1=O (some centres unmarked) [Halofuginone]
[1]; Halofuginone alone, 5 mg/kg diet, all six rats survived
  toxicity (survival): no toxicity
[1]; rat, in vivo
  liver weight: 11 ± 1.5 g
[1]; rats given 1% dimethylnitrosamine i.p. and Halofuginone 5 mg/kg diet, 3 weeks, compared to dimethylnitrosamine alone
  expression of collagen α1(I) gene in liver (in situ hybridization): marked reduction
[1]; rats given both Halofuginone and dimethylnitrosamine, dimethylnitrosamine alone 4.5 g and 5.0 g
  liver weight: 8.5 ± 1.7 g
[1]; rats given both dimethylnitrosamine and Halofuginone 5 mg/kg diet
  thickening of collagen bundles in liver (Sirius red staining): markedly reduced
[1]; rats given both dimethylnitrosamine and Halofuginone, four of six died with dimethylnitrosamine alone
  rats died by the end of three weeks: one of the six
[2]; 0.25% dimethylnitrosamine plus Halofuginone
  increased collagen α1(I) gene expression in liver: abolished
[2]; 0.25% dimethylnitrosamine, Halofuginone in diet
  dimethylnitrosamine-induced increase in liver hydroxyproline concentration: completely inhibited
[3]; [9]
  bile duct ligation-induced increase in collagen synthesis: significantly reduced
  bile duct ligation-induced increase in collagen α1(I) gene expression: significantly reduced
[3]; [10]
  serum alanine aminotransferase, higher in rats not given Halofuginone than in rats fed Halofuginone: 56%
  serum alkaline phosphatase in rats not given Halofuginone relative to rats fed Halofuginone: 257%
  serum aspartate aminotransferase, higher in rats not given Halofuginone than in rats fed Halofuginone: 15%
[4]; Halofuginone plus TAA vs TAA alone (prevention)
  reduction of fibrotic scores for liver: 43%
[4]; rat, in vivo
  effect on body weight: no effect
  effect on spleen weight: no effect
[4]; rats given both TAA (200 mg/kg i.p. twice weekly, 12 weeks) and Halofuginone 5 ppm in diet from three days before TAA
  thickening of collagen bundles in liver (Sirius red staining): markedly reduced
[4]; scale of 0-4, rats given both Halofuginone and TAA (prevention), TAA alone 2.16±0.7
  average double-blind liver fibrosis score: 1.25±0.8
[5]; Halofuginone given for four weeks after twelve weeks of TAA
  thickening of collagen bundles in liver (Sirius red staining): markedly reduced
[5]; scale of 0-4, group 3, Halofuginone after twelve weeks TAA, TAA alone 2.16±0.7 (group 1) or 3.06±1.7 (group 2)
  average double-blind liver fibrosis score: 1.18±1.6
[6]
  pathological expression of smooth muscle actin by stellate cells: prevented
[7]
  pathological expression of smooth muscle actin by stellate cells: significantly reduced
[8]
  synthesis of collagen type I in bone chondrocytes in vitro: inhibits

— patent US6562829B1, “Treatment of hepatic cirrhosis” (Hadasit Medical Research Services & Development Co., Ltd., priority 1997, dated 2003)
